Experimental data as given in ChEMBL document CHEMBL1156772, “Synthesis, affinity profile and functional activity of potent chiral muscarinic antagonists with a pyrrolidinylfuran structure” (J Med Chem, 2010).

Key:
[1] = target: T1, Muscarinic receptor 2 (Cavia porcellus, UniProt Q8VH27); experiment: Antagonist activity at muscarinic M2 receptor in guinea pig left atrium assessed as effect on electrically-stimulated inotropic activity after 60 mins; type: functional, tissue-based, Cardiac atrium; details: read-out: pA2 (converted)
T1 sequence (Q8VH27 whole entry): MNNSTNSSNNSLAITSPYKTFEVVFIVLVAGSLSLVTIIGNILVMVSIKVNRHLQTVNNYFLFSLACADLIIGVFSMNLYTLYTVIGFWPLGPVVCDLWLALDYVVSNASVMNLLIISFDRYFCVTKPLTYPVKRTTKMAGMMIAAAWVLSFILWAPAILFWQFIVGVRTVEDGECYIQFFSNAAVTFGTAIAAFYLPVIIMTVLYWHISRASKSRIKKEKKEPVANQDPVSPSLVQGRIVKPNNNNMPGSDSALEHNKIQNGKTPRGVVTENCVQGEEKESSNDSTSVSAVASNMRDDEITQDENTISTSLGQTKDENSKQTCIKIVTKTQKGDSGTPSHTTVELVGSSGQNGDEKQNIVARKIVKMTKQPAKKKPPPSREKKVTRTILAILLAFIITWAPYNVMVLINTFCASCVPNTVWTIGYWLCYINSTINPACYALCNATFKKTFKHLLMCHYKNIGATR

[2] = target: T2, Muscarinic receptor 4 (Cavia porcellus, UniProt Q8VH25); experiment: Antagonist activity at muscarinic M4 receptor in guinea pig lung strips assessed as effect on isotonic contraction after 60 mins; type: functional; details: read-out: pA2 (converted)
T2 sequence (Q8VH25 whole entry): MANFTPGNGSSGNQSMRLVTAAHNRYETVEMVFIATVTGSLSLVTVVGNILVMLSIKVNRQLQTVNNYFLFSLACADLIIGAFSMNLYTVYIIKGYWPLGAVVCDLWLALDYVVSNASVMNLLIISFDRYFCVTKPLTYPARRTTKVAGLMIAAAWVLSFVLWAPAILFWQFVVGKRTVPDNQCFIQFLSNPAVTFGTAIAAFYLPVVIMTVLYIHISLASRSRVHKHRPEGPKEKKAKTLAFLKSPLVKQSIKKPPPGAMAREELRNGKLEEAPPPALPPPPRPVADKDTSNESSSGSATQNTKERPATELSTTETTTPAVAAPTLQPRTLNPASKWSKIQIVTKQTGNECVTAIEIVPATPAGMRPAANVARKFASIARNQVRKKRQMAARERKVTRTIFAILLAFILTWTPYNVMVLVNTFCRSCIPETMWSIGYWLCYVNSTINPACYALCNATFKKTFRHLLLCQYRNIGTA

C[N+]1(C)[C@@H]2C[C@@H](OC(=O)[C@H](CO)c3ccccc3)C[C@H]1[C@@H]1O[C@@H]12 [METHSCOPOLAMINE]
Kb [1]: 0.468 nM | Kb [2]: 6.46 nM
